According to patent US6448256B1, “Antibiotic prodrugs” (University of Massachusetts, priority 1999, dated 2002):
In brackets after ≈: the same amount, converted by molar mass. Like-named read-outs stand apart in the source and are kept apart here.

How the values were obtained:
[1] = system: B. subtilis; assay: Antibacterial activity of crude compounds made by small scale synthesis; type: cell-based; settings: crude reaction mixtures dissolved in DMSO, assayed directly
Description: 6-Anilinouracils were synthesized using small scale synthetic methods. One milligram quantities of 3-(3-methoxypropyl)-6-chlorouracil were heated with 42 substituted anilines in micro-test tubes at 130° C. for 20 minutes. The reaction mixtures were dissolved in DMSO and assayed directly for antibacterial activity.

[2] = biological target: B. subtilis DNA pol III (Bacillus subtilis, UniProt P13267); assay: Inhibition of B. subtilis DNA pol III (Ki); type: biochemical
Sequence of B. subtilis DNA pol III (P13267 whole entry): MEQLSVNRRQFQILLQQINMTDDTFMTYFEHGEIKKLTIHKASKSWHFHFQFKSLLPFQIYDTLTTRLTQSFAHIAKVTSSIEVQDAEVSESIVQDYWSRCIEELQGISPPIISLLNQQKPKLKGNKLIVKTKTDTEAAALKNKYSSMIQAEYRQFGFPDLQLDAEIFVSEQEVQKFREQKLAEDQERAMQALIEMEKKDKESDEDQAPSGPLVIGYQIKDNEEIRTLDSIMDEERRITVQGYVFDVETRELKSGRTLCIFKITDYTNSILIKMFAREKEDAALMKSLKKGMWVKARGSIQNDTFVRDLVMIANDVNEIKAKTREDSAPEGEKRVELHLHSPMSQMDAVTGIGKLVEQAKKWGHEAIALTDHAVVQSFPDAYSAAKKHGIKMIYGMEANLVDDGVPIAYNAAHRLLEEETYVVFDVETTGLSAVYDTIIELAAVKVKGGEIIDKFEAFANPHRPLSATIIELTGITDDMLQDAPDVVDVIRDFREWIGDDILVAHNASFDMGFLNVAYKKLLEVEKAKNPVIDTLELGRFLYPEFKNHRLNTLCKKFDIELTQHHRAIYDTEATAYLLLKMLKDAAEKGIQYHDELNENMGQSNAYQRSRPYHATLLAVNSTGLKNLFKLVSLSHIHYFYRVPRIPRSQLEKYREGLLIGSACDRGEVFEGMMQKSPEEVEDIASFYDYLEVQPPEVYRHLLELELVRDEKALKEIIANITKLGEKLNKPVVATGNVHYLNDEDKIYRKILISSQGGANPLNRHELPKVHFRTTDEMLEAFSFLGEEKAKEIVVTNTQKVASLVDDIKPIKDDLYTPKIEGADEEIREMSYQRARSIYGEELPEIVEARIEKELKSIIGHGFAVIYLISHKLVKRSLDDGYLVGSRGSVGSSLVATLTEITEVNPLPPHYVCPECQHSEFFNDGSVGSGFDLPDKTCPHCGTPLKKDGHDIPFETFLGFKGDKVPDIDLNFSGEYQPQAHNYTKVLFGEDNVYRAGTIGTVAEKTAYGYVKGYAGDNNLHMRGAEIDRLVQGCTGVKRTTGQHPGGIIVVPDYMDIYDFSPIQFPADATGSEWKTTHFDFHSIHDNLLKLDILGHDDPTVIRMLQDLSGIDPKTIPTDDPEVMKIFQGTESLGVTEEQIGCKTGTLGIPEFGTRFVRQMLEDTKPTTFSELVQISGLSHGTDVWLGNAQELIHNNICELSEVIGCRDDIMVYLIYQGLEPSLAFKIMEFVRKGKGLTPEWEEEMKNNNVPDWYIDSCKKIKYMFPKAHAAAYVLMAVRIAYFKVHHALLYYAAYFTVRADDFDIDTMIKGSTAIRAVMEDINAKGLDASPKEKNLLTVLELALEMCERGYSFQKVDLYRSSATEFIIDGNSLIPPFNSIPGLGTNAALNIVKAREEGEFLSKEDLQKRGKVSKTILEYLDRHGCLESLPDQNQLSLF
Description: (§1) To further investigate the antibacterial and/or DNA pol III inhibitory activity of various drug compounds, various ester-containing moieties N-linked to the EMAU core were produced as described in Example 1. These prodrugs were assayed for inhibition of B. subtilis DNA pol III and antibiotic activity against a number of bacteria.
The competitive inhibitor constants (Ki) of selected EMAU compounds were determined with three different pol Ills: the pol III enzyme from Bacillus subtilis (BS pol III), and the pol III enzymes of the clinically relevant pathogens, Enterococcus fecalis (EF pol III) and Staphylococcus aureus (SA pol 111).

[3] = system: B. subtilis; assay: MIC against B. subtilis; type: cell-based; settings: for MIC B. subtilis: Table 2; for MIC: Bacillus subtilis, Table 6, read-out: MIC B. subtilis
Description: as §1
(§2) The minimal inhibitory concentrations (MICs) of the four N3-substituted agents and EMAU were determined for B. subtilis (BS), methicillin-sensitive and resistant S. aureus (SA & MRSA), vancomycin-sensitive and resistant E. fecalis (EF& VREF), vancomycin-resistant E. fecium (VREF*), and E. coli (EC) as a Gram-negative control.

[4] = system: S. aureus; assay: MIC against S. aureus (methicillin-sensitive); type: cell-based; settings: for MIC S. aureus: Table 2; for MIC: Staphylococcus aureus, read-out: MIC S. aureas
Description: as §1, §2

[5] = system: MRSA; assay: MIC against methicillin-resistant S. aureus strain MRSA / MRSA1; type: cell-based; settings: Table 2
Description: as §1, §2

[6] = system: MRSA2; assay: MIC against methicillin-resistant S. aureus strain MRSA2; type: cell-based; settings: Table 2
Description: as §1, §2

[7] = system: E. fecalis; assay: MIC against E. fecalis; type: cell-based; settings: for MIC E. fecalis: Table 2; for MIC: Table 6, read-out: MIC E. fecalis
Description: as §1, §2

[8] = system: E. fecium; assay: MIC against E. fecium; type: cell-based; settings: Table 2
Description: as §1

[9] = system: vancomycin-resistant E. fecium; assay: MIC against vancomycin-resistant E. fecium (VRE, VREF*); type: cell-based; settings: Table 2, vancomycin-resistant E. fecium
Description: as §1, §2

[10] = system: E. coli; assay: MIC against E. coli (Gram-negative control); type: cell-based; settings: Table 2
Description: as §1, §2

[11] = Table 2, prodrugs having the EMAU core, read-out: Ki B. subtilis DNA Pol III
[12] = Table 6, read-out: Ki, inhibition constant vs. B. subtilis DNA pol III

COCCCn1c(=O)cc(Nc2cc(OC(F)(F)F)cc(OC(F)(F)F)c2)[nH]c1=O [3,5-diOCF3]
MIC B. subtilis [1]: >100 µg/mL

COCCCn1c(=O)cc(Nc2cc(Cl)cc(Cl)c2)[nH]c1=O [3,5-diCl]
MIC B. subtilis [1]: >100 µg/mL

CCc1cc(Nc2cc(=O)n(CCCCOC(=O)C(NC(=O)OC(C)(C)C)C(C)C)c(=O)[nH]2)ccc1C (centres unmarked) [(CH2)4-OCOCH(iPr)NH-Boc]
Ki [2, 11]: 4900 nM | MIC B. subtilis [3]: 2.5 μ/ml | MIC S. aureus [4]: >20 μ/ml | MIC MRSA [5]: >20 μ/ml | MIC MRSA2 [6]: >20 μ/ml | MIC E. fecalis [7]: >20 μ/ml | MIC E. fecium [8]: >20 μ/ml | MIC VRE [9]: >20 μ/ml | MIC E. coli [10]: >20 μ/ml

CCc1cc(Nc2cc(=O)n(CCCCOC(=O)C3CCCN3C(=O)OC(C)(C)C)c(=O)[nH]2)ccc1C (centres unmarked) [(CH2)4-OCOCH(CH2)3NH-Boc]
Ki [2, 11]: 3200 nM | MIC B. subtilis [3]: <1.25 μ/ml | MIC S. aureus [4]: 10 μ/ml | MIC MRSA [5]: 20 μ/ml | MIC MRSA2 [6]: 10 μ/ml | MIC E. fecalis [7]: 10 μ/ml | MIC E. fecium [8]: 10 μ/ml | MIC VRE [9]: 10 μ/ml | MIC E. coli [10]: >20 μ/ml

COCCCn1c(=O)cc(Nc2ccc(Br)c(Br)c2)[nH]c1=O [3,4-diBr]
MIC B. subtilis [1]: 3.13 µg/mL (≈ 7.23 µM)

CCc1cc(Nc2cc(=O)n(CCCCOC(=O)C(N)Cc3ccccc3)c(=O)[nH]2)ccc1C (centres unmarked) [(CH2)4-OCOCH(CH2Ph)NH3^+Cl^−]
Ki [2, 11]: 6200 nM | MIC B. subtilis [3]: >20 μ/ml | MIC S. aureus [4]: >20 μ/ml | MIC MRSA [5]: >20 μ/ml | MIC MRSA2 [6]: >20 μ/ml | MIC E. fecalis [7]: >20 μ/ml | MIC E. fecium [8]: >20 μ/ml | MIC VRE [9]: >20 μ/ml | MIC E. coli [10]: >20 μ/ml

CCc1cc(Nc2cc(=O)n(CCCCOC(=O)C(CO)NC(=O)OC(C)(C)C)c(=O)[nH]2)ccc1C (centres unmarked) [(CH2)4-OCOCH(CH2OH)NH-Boc]
Ki [2, 11]: 1500 nM | MIC B. subtilis [3]: 5 μ/ml | MIC S. aureus [4]: 20 μ/ml | MIC MRSA [5]: 20 μ/ml | MIC MRSA2 [6]: 20 μ/ml | MIC E. fecalis [7]: 5 μ/ml | MIC E. fecium [8]: 10 μ/ml | MIC VRE [9]: 5 μ/ml | MIC E. coli [10]: >20 μ/ml

COCCCn1c(=O)cc(Nc2cccc(CO)c2)[nH]c1=O [Compound 3-CH2OH]
MIC B. subtilis [1]: >100 µg/mL

COCCCn1c(=O)cc(Nc2ccc(F)cc2)[nH]c1=O [Compound 4-F]
MIC B. subtilis [1]: >100 µg/mL

COCCCn1c(=O)cc(Nc2ccccc2)[nH]c1=O [—]
MIC B. subtilis [1]: >100 µg/mL

COCCCn1c(=O)cc(Nc2ccc(I)cc2)[nH]c1=O [Compound 4-I]
MIC B. subtilis [1]: 100 µg/mL (≈ 249 µM)

Cc1ccc(Nc2cc(=O)n(CCCCI)c(=O)[nH]2)cc1I [IB-IMAU]
Ki [2, 12]: 660 nM | MIC [3]: < 3.1 µg/mL | MIC [4]: 6 µg/mL (≈ 11.4 µM) | MIC [7]: 6 µg/mL (≈ 11.4 µM)

COCCCn1c(=O)cc(Nc2cccc([N+](=O)[O-])c2)[nH]c1=O [Compound 3-NO2]
MIC B. subtilis [1]: >100 µg/mL

COCCCn1c(=O)cc(Nc2ccc(C)c(C)c2)[nH]c1=O [3,4-diMe]
MIC B. subtilis [1]: 6.26 µg/mL (≈ 20.6 µM)

COCCCn1c(=O)cc(Nc2cccc(C(C)O)c2)[nH]c1=O (centres unmarked) [3-CH(OH)CH3]
MIC B. subtilis [1]: >100 µg/mL

COCCCn1c(=O)cc(Nc2ccc(Br)c(C(F)(F)F)c2)[nH]c1=O [Compound 3-CF3-4-Br]
MIC B. subtilis [1]: >100 µg/mL

COCCCn1c(=O)cc(Nc2cccc(Cl)c2)[nH]c1=O [Compound 3-Cl]
MIC B. subtilis [1]: >100 µg/mL

COCCCn1c(=O)cc(Nc2ccc(C#N)cc2)[nH]c1=O [Compound 4-CN]
MIC B. subtilis [1]: >100 µg/mL

COCCCn1c(=O)cc(Nc2cccc(F)c2)[nH]c1=O [Compound 3-F]
MIC B. subtilis [1]: >100 µg/mL

COCCCn1c(=O)cc(Nc2cc(C)cc(C)c2)[nH]c1=O [3,5-diMe]
MIC B. subtilis [1]: 50 µg/mL (≈ 165 µM)

COCCCn1c(=O)cc(Nc2ccc(Cl)c(C(F)(F)F)c2)[nH]c1=O [Compound 3-CF3-4-Cl]
MIC B. subtilis [1]: >100 µg/mL

COCCCn1c(=O)cc(Nc2ccc(C)c(Cl)c2)[nH]c1=O [Compound 3-Cl-4-Me]
MIC B. subtilis [1]: 3.13 µg/mL (≈ 9.67 µM)

COCCCn1c(=O)cc(Nc2cccc(C#N)c2)[nH]c1=O [Compound 3-CN]
MIC B. subtilis [1]: >100 µg/mL

COCCCn1c(=O)cc(Nc2cccc(OC)c2)[nH]c1=O [Compound 3-OMe]
MIC B. subtilis [1]: >100 µg/mL

COCCCn1c(=O)cc(Nc2ccc(C(C)C)cc2)[nH]c1=O [Compound 4-iPR]
MIC B. subtilis [1]: >100 µg/mL

CCc1cc(Nc2cc(=O)n(CCCCOC)c(=O)[nH]2)ccc1C [MB-EMAU]
Ki [2, 12]: 430 nM | MIC [3]: < 3.1 µg/mL | MIC [4]: 6 µg/mL (≈ 18.1 µM) | MIC [7]: 6 µg/mL (≈ 18.1 µM)

COCCCn1c(=O)cc(Nc2ccc(C)cc2)[nH]c1=O [Compound 4-Me]
MIC B. subtilis [1]: 50 µg/mL (≈ 173 µM)

COCCCCn1c(=O)cc(Nc2ccc(C)c(I)c2)[nH]c1=O [ME-IMAU]
Ki [2, 12]: 540 nM | MIC [3]: < 3.1 µg/mL | MIC [4]: 6 µg/mL (≈ 14 µM) | MIC [7]: 3 µg/mL (≈ 6.99 µM)

COCCCn1c(=O)cc(Nc2ccc(F)c(F)c2)[nH]c1=O [3,4-diF]
MIC B. subtilis [1]: >100 µg/mL

COCCCn1c(=O)cc(Nc2cccc(I)c2)[nH]c1=O [Compound 3-I]
MIC B. subtilis [1]: 25 µg/mL (≈ 62.3 µM)

COCCCn1c(=O)cc(Nc2ccc(O)cc2)[nH]c1=O [Compound 4-OH]
MIC B. subtilis [1]: >100 µg/mL

CCc1cc(Nc2cc(=O)n(CCCCOC(=O)C(C)N)c(=O)[nH]2)ccc1C (centres unmarked) [(CH2)4-OCOCHCH3NH3^+Cl^−]
Ki [2, 11]: 180 nM | MIC B. subtilis [3]: 2.5 μ/ml | MIC S. aureus [4]: 20 μ/ml | MIC MRSA [5]: 20 μ/ml | MIC MRSA2 [6]: 20 μ/ml | MIC E. fecalis [7]: 10 μ/ml | MIC E. fecium [8]: 10 μ/ml | MIC VRE [9]: 10 μ/ml | MIC E. coli [10]: >20 μ/ml

COCCCn1c(=O)cc(Nc2cccc(Br)c2)[nH]c1=O [Compound 3-Br]
MIC B. subtilis [1]: >100 µg/mL

CCc1cc(Nc2cc(=O)n(CCCCOC(=O)C(N)CO)c(=O)[nH]2)ccc1C.Cl (centres unmarked) [(CH2)4-OCOCH(CH2OH)NH3^+Cl^−]
Ki [2, 11]: 10 nM | MIC B. subtilis [3]: 10 μ/ml | MIC S. aureus [4]: >20 μ/ml | MIC MRSA [5]: >20 μ/ml | MIC MRSA2 [6]: >20 μ/ml | MIC E. fecalis [7]: 20 μ/ml | MIC E. fecium [8]: 20 μ/ml | MIC VRE [9]: 20 μ/ml | MIC E. coli [10]: >20 μ/ml

COCCCn1c(=O)cc(Nc2ccc(F)c(Cl)c2)[nH]c1=O [Compound 3-Cl-4-F]
MIC B. subtilis [1]: 50 µg/mL (≈ 153 µM)

COCCCn1c(=O)cc(Nc2ccc(C)c(I)c2)[nH]c1=O [Compound 3-1-4-Me]
MIC B. subtilis [1]: 1.57 µg/mL (≈ 3.78 µM)

CCc1ccc(Nc2cc(=O)n(CCCOC)c(=O)[nH]2)cc1 [Compound 4-Et]
MIC B. subtilis [1]: 50 µg/mL (≈ 165 µM)

COCCCn1c(=O)cc(Nc2ccc(OC)c(OC)c2)[nH]c1=O [3,4-diOMe]
MIC B. subtilis [1]: >100 µg/mL

COCCCn1c(=O)cc(Nc2ccc(Cl)cc2)[nH]c1=O [Compound 4-Cl]
MIC B. subtilis [1]: 100 µg/mL (≈ 323 µM)

COCCCn1c(=O)cc(Nc2cccc(C)c2)[nH]c1=O [Compound 3-Me]
MIC B. subtilis [1]: 100 µg/mL (≈ 346 µM)

COCCCn1c(=O)cc(Nc2ccc(Cl)c(Cl)c2)[nH]c1=O [3,4-diCl]
MIC B. subtilis [1]: 6.25 µg/mL (≈ 18.2 µM)

CCc1cc(Nc2cc(=O)n(CCCCI)c(=O)[nH]2)ccc1C [IB-EMAU, 3-(4-iodobutyl)-6-(3-ethyl-4-methylanilino)uracil]
Ki [2, 12]: 360 nM | MIC [3]: < 3.1 µg/mL | MIC [4]: 12 µg/mL (≈ 28.1 µM) | MIC [7]: 6 µg/mL (≈ 14 µM)

COCCCn1c(=O)cc(Nc2ccc(CC(C)C)cc2)[nH]c1=O [Compound 4-iBU]
MIC B. subtilis [1]: >100 µg/mL

COCCCn1c(=O)cc(Nc2ccc(OC)c(Cl)c2)[nH]c1=O [Compound 3-Cl-4-OMe]
MIC B. subtilis [1]: 50 µg/mL (≈ 147 µM)

COCCCn1c(=O)cc(Nc2ccc(C)c(CO)c2)[nH]c1=O [Compound 3-CH2OH-4-Me]
MIC B. subtilis [1]: >100 µg/mL

CCCc1ccc(Nc2cc(=O)n(CCCOC)c(=O)[nH]2)cc1 [Compound 4-Pr]
MIC B. subtilis [1]: >100 µg/mL

COCCCn1c(=O)cc(Nc2cc(F)c(F)c(F)c2)[nH]c1=O [3,4,5-triF]
MIC B. subtilis [1]: >100 µg/mL
